# Measured values: US20040138234A1, “Histamine receptor antagonists” (Pfizer Inc, priority 2001, published 2004)
# Counter-ions that a name gives are not always drawn.
# Legend:
# histamine H4 receptor = target: T1, histamine H4 receptor (Homo sapiens, UniProt Q9H3N8); experiment: Histamine H4 receptor radioligand binding, HEK293 cell line membranes
# T1 construct: expressed in transfected cells; host or cells: HEK293
# From the text: The cDNA for the human histamine H3 and H4 receptor can be expressed in a suitable cell line such as HEK293 or CHO. In addition membranes can be prepared from tissues or cells which naturally express either the histamine H3 and/or H4 receptor. Affinity can be assessed at either receptor by assessing the ability of ligands to inhibit the binding of a suitable radioactively labelled ligand to membranes containing either the histamine H3 or H4 receptor. The potency of compounds is compared by calculating their pKI values.
# human eosinophils [1] = experiment: Promotion of chemotaxis of interleukin 5 primed human isolated eosinophils (agonist mode); format: cell-based; conditions: interleukin 5 priming; for promotion of chemotaxis of human eosinophils: concentrations of from 10^−4 to 10^−5 M
# Method: (§1) A further functional assay for the histamine H4 receptor determines the ability of histamine to induce chemotaxis in eosinophils isolated from human blood. In this assay cells are primed with interleukin 5 and the ability of histaminergic ligands to promote migration of eosinophils across a permeable membrane is studied. The number of cells migrating in a defined period is then counted. Agonist potencies are expressed as EC50 values. Antagonists can also be studied by pre-incubating eosinophils with the compound and then assessing the inhibitory effects on histamine (or other suitable ligand) on eosinophil chemotaxis. The experiments can be performed in one of two ways. Firstly, by increasing the concentration of antagonist versus fixed concentration of agonist and calculating the IC50 for each antagonist. Secondly, by increasing the concentration of antagonist versus increasing the concentration of agonist and expressing the antagonist potency as a pkb or pA2 value, as appropriate.
# human eosinophils [2] = experiment: Inhibition of histamine-induced chemotaxis of human eosinophils (eosinophil pre-incubation method); format: cell-based; conditions: for effect on histamine-induced chemotaxis: at concentrations of 10 micromolar; for IC50: Homo sapiens, Eosinophil, eosinophils pre-incubated with antagonist, concentration related
# Method: as §1
# T1 sequence (Q9H3N8 whole entry): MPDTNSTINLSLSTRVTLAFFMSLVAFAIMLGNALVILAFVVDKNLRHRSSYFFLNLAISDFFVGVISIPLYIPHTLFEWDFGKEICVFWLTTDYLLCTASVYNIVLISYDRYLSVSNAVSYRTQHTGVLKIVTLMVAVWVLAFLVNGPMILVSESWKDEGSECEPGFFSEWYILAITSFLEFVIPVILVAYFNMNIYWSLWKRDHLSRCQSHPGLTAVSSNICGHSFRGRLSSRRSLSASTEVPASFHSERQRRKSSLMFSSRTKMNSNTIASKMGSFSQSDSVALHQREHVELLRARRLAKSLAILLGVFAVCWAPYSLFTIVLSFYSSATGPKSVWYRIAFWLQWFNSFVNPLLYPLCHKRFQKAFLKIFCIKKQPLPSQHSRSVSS
smiles,measurement,setting,value
NC(=NCc1ccc(Cl)cc1)SCCCc1cnc[nH]1 [Clobenpropit],Ki,histamine H4 receptor,0.00661 µM
CC(CCCCC(=O)Nc1ccc(C(F)(F)F)cc1)NCCc1cnc[nH]1 (stereo not drawn) [HTMT],promotion of chemotaxis of human eosinophils,human eosinophils [1],did not promote chemotaxis
CN/C(=N/CCSCc1nc[nH]c1C)NC#N [cimetidine],effect on histamine-induced chemotaxis,human eosinophils [2],little or no effect
NC(=NCc1ccc(Cl)cc1)SCCCc1cnc[nH]1 [clobenpropit dihydrobromide],IC50,human eosinophils [2],1.5 µM
CN(C)CCCSC(=N)N [dimaprit],promotion of chemotaxis of human eosinophils,human eosinophils [1],did not promote chemotaxis
NCCc1c[nH]cn1 [histamine],promotion of chemotaxis of human isolated eosinophils,human eosinophils [1]; concentration range 10^−8 to 10^−5 M,promoted chemotaxis
N=C(N)SCCc1cnc[nH]1 [imetit],promotion of chemotaxis of human eosinophils,human eosinophils [1],did not promote chemotaxis
COc1ccc(CN(CCN(C)C)c2ccccn2)cc1 [mepyramine maleate],effect on histamine-induced chemotaxis,human eosinophils [2],little or no effect
S=C(NC1CCCCC1)N1CCC(c2cnc[nH]2)CC1 [thioperamide maleate],IC50,human eosinophils [2],0.83 µM
